# Read-outs that look alike come from different tables or passages of the source.
# Legend:
# [1] = tested on: Gram-positive bacteria and Gram-negative bacteria; details: background, Antimicrobial Agents and Chemotherapy; cited from earlier work
# C. freundii No. 7 = test: MIC by agar plate dilution method; type: cell-based; details: Citrobacter freundii
# Method: (§1) The minimum inhibitory concentrations (MIC: μg/ml) of the compounds of the present invention against various microorganisms were measured by an agar plate dilution method (inoculum size: 10^6 CFU/ml) by using Sensitivity Disk Agar (Nissui) in comparison with Cefotaxime and Ceftazidime as comparative compounds.
# (§2) Minimum Inhibitory Concentration (μg/ml; 10^6 CFU/ml)
# P. cepacia 23 = test: MIC by agar plate dilution method; type: cell-based
# Method: as §1, §2
# P. aeruginosa AKR17 = test: MIC by agar plate dilution method; type: cell-based; details: Pseudomonas aeruginosa
# Method: as §1, §2
# E. coli NIHJJC-2 = test: MIC by agar plate dilution method; type: cell-based; details: Escherichia coli
# Method: as §1, §2
# E. coli ML1410/Rte16 = test: MIC by agar plate dilution method; type: cell-based; details: Escherichia coli, ML1410/RTE16, read-out: Minimum Inhibitory Concentration, E. coli ML1410/Rte16; 10^6 CFU/ml
# Method: as §1, §2
# P. maltophilia IID 1275 = test: MIC by agar plate dilution method; type: cell-based; details: Stenotrophomonas maltophilia
# Method: as §1, §2
# E. coli CSH2 = test: MIC by agar plate dilution method; type: cell-based; details: Escherichia coli, 10^6 CFU/ml, read-out: Minimum Inhibitory Concentration
# Method: as §1, §2
# A. calcoaceticus No. 14 = test: MIC by agar plate dilution method; type: cell-based; details: Acinetobacter calcoaceticus
# Method: as §1, §2
# E. coli C/Rms149 = test: MIC by agar plate dilution method; type: cell-based; details: Escherichia coli, read-out: Minimum Inhibitory Concentration, E. coli C/Rms149; 10^6 CFU/ml
# Method: as §1, §2
# P. aeruginosa AK109 = test: MIC by agar plate dilution method; type: cell-based; details: Pseudomonas aeruginosa
# Method: as §1, §2
# E. cloaceae Nek 39 = test: MIC by agar plate dilution method; type: cell-based; details: read-out: Minimum Inhibitory Concentration
# Method: as §1, §2
# P. mirabilis JY10 = test: MIC by agar plate dilution method; type: cell-based; details: Proteus mirabilis
# Method: as §1, §2
# S. marcescens No. 16-2 = test: MIC by agar plate dilution method; type: cell-based; details: Serratia marcescens
# Method: as §1, §2
# K. pneumoniae No. 42 = test: MIC by agar plate dilution method; type: cell-based; details: Klebsiella pneumoniae
# Method: as §1, §2
# S. aureus JS-1 = test: MIC by agar plate dilution method; type: cell-based; details: Staphylococcus aureus
# Method: as §1, §2
# P. vulgaris No. 33 = test: MIC by agar plate dilution method; type: cell-based; details: Proteus vulgaris
# Method: as §1, §2
# P. vulgaris OB1043 = test: MIC by agar plate dilution method; type: cell-based; details: Proteus vulgaris
# Method: as §1, §2
# S. aureus NIHJJC-1 = test: MIC by agar plate dilution method; type: cell-based; details: Staphylococcus aureus
# Method: as §1, §2
# E. coli W3630/Rms212 = test: MIC by agar plate dilution method; type: cell-based; details: Escherichia coli, W3630/RMS212, read-out: Minimum Inhibitory Concentration, E. coli W3630/Rms212; 10^6 CFU/ml
# Method: as §1, §2
# E. coli W3630/Rms213 = test: MIC by agar plate dilution method; type: cell-based; details: Escherichia coli, W3630/RMS213, read-out: Minimum Inhibitory Concentration, E. coli W3630/Rms213; 10^6 CFU/ml
# Method: as §1, §2
# E. coli CSH = test: MIC by agar plate dilution method; type: cell-based; details: Escherichia coli, 10^6 CFU/ml, read-out: Minimum Inhibitory Concentration
# Method: as §1, §2
# E. coli NIHJ = test: bioautography (TLC); type: cell-based; details: TLC Merck silica gel F254, E. coli NIHJ
# Method: 2.5 mg of the compound obtained in Example 4 (C) was suspended in 0.5 ml of methanol, and 35 μl of concentrated aqueous ammonia was added thereto. The mixture was left to stand at room temperature for 1 hour. […] The fraction of this peak was separated and freeze-dried to obtain 1 mg of the above identified compound.
# [2] = C. freundii No. 7, 10^6 CFU/ml, read-out: Minimum Inhibitory Concentration
# [3] = Burkholderia cepacia, P. cepacia 23, 10^6 CFU/ml, read-out: Minimum Inhibitory Concentration
# [4] = AKR17, P. aeruginosa AKR17, 10^6 CFU/ml, read-out: Minimum Inhibitory Concentration
# [5] = NIHJJC2, E. coli NIHJJC-2, 10^6 CFU/ml, read-out: Minimum Inhibitory Concentration
# [6] = NO.14, A. calcoaceticus No. 14, 10^6 CFU/ml, read-out: Minimum Inhibitory Concentration
# [7] = AK109, P. aeruginosa AK109, 10^6 CFU/ml, read-out: Minimum Inhibitory Concentration
# [8] = E. cloaceae Nek 39, 10^6 CFU/ml
# [9] = P. mirabilis JY10, 10^6 CFU/ml, read-out: Minimum Inhibitory Concentration
# [10] = NO.162, S. marcescens No. 16-2, 10^6 CFU/ml, read-out: Minimum Inhibitory Concentration
# [11] = K. pneumoniae No. 42, 10^6 CFU/ml, read-out: Minimum Inhibitory Concentration
# [12] = JS1, S. aureus JS-1, 10^6 CFU/ml, read-out: Minimum Inhibitory Concentration
# [13] = P. vulgaris No. 33, 10^6 CFU/ml, read-out: Minimum Inhibitory Concentration
# [14] = OB1043, P. vulgaris OB1043, 10^6 CFU/ml, read-out: Minimum Inhibitory Concentration
# [15] = NIHJJC1, S. aureus NIHJJC-1, 10^6 CFU/ml, read-out: Minimum Inhibitory Concentration
SMILES,antibacterial activities [1],MIC (C. freundii No. 7; [2]) [µg/mL],MIC (P. cepacia 23; [3]) [µg/mL],MIC (P. aeruginosa AKR17; [4]) [µg/mL],MIC (E. coli NIHJJC-2; [5]) [µg/mL],MIC (E. coli ML1410/Rte16) [µg/mL],MIC (E. coli CSH2) [µg/mL],MIC (A. calcoaceticus No. 14; [6]) [µg/mL],MIC (E. coli C/Rms149) [µg/mL],MIC (P. aeruginosa AK109; [7]) [µg/mL],MIC (E. cloaceae Nek 39; [8]) [µg/mL],MIC (P. mirabilis JY10; [9]) [µg/mL],MIC (S. marcescens No. 16-2; [10]) [µg/mL],MIC (K. pneumoniae No. 42; [11]) [µg/mL],MIC (S. aureus JS-1; [12]) [µg/mL],MIC (P. vulgaris No. 33; [13]) [µg/mL],MIC (P. vulgaris OB1043; [14]) [µg/mL],MIC (E. coli W3630/Rms212) [µg/mL],MIC (E. coli W3630/Rms213) [µg/mL],MIC (E. coli CSH) [µg/mL],further results
"CO/N=C(\C(=O)N[C@@H]1C(=O)N2C(C(=O)O)=C(COC(C)=O)CS[C@H]12)c1csc(N)n1 [Cefotaxime, reference compound]","relatively poor antibacterial activities against Gram-positive bacteria, and excellent activities against Gram-negative bacteria, particularly against Enterobacteriacae",0.39,6.25,> 25,≤ 0.05,≤ 0.05,≤ 0.05,25,≤ 0.05,6.25,0.78,≤ 0.05,6.25,0.1,6.25,≤ 0.05,0.39,≤ 0.05,0.2,0.1,"MIC (P. maltophilia IID 1275; IID1275, P. maltophilia IID 1275, 10^6 CFU/ml, read-out: Minimum Inhibitory Concentration): > 25 µg/mL; MIC (S. aureus NIHJJC-1; [15]): 0.78 µg/mL"
"CC(C)(O/N=C(\C(=O)N[C@@H]1C(=O)N2C(C(=O)[O-])=C(C[n+]3ccccc3)CS[C@H]12)c1csc(N)n1)C(=O)O [Ceftazidime, reference compound]",the most excellent cephalosporin derivative against Gram-positive bacteria including Pseudomonas aeruginosa and Acinetobacter,–,–,–,–,0.2,≤ 0.1,–,0.2,–,–,–,–,–,–,–,–,0.2,0.2,≤ 0.1,"MIC (C. freundii No. 7; NO.7, read-out: Minimum Inhibitory Concentration): 1.56 µg/mL; MIC (P. cepacia 23; Burkholderia cepacia, 23, read-out: Minimum Inhibitory Concentration): 0.39 µg/mL; MIC (P. aeruginosa AKR17; AKR17, read-out: Minimum Inhibitory Concentration): > 100 µg/mL; MIC (E. coli NIHJJC-2; NIHJJC2, read-out: Minimum Inhibitory Concentration): ≤ 0.1 µg/mL; MIC (P. maltophilia IID 1275; IID1275, read-out: Minimum Inhibitory Concentration): > 25 µg/mL; MIC (A. calcoaceticus No. 14; NO.14, read-out: Minimum Inhibitory Concentration): 6.25 µg/mL; MIC (P. aeruginosa AK109; AK109, read-out: Minimum Inhibitory Concentration): 1.56 µg/mL; MIC (E. cloaceae Nek 39): 0.78 µg/mL; MIC (P. mirabilis JY10; JY10, read-out: Minimum Inhibitory Concentration): ≤ 0.1 µg/mL; MIC (S. marcescens No. 16-2; NO.162, read-out: Minimum Inhibitory Concentration): 1.56 µg/mL; MIC (K. pneumoniae No. 42; NO.42, read-out: Minimum Inhibitory Concentration): 0.39 µg/mL; MIC (S. aureus JS-1; JS1, read-out: Minimum Inhibitory Concentration): 50 µg/mL; MIC (P. vulgaris No. 33; NO.33, read-out: Minimum Inhibitory Concentration): ≤ 0.1 µg/mL; MIC (P. vulgaris OB1043; OB1043, read-out: Minimum Inhibitory Concentration): ≤ 0.1 µg/mL; MIC (S. aureus NIHJJC-1; NIHJJC1, read-out: Minimum Inhibitory Concentration): 3.12 µg/mL"
"CO/N=C(\C(=O)NC1C(=O)N2C(C(=O)[O-])=C(C[N+]3(C)CCc4cc(OC(C)=O)c(OC(C)=O)cc4C3)CSC12)c1csc(N)n1 (centres unmarked) [Ex. 4-C, 7-[(Z)-2-(2-aminothiazol-4-yl)-2-methoxyiminoacetamido]-3-(6,7-diacetoxy-2-methyl-1,2,3,4-tetrahydro-2-isoquinolinium)methyl-3-cephem-4-carboxylate]",–,6.25,0.78,1.56,< 0.05,0.1,0.1,0.39,≤ 0.1,0.1,≤ 0.05,0.78,6.25,0.2,25,0.2,1.56,≤ 0.05,1.56,1.56,MIC (S. aureus NIHJJC-1; [15]): 3.12 µg/mL; antibacterial spot in bioautography (E. coli NIHJ): the antibacterial spot of the starting material was at Rf=0.4
